Experimental findings from ChEMBL document CHEMBL1134093, “Amidino benzimidazole inhibitors of bacterial two-component systems” (Bioorg Med Chem Lett, 2001) are described below.

Converted amounts (≈) assume the structure as drawn.

For test [1], the system named is Staphylococcus aureus. In words: Inhibition of growth of Staphylococcus aureus ATCC 29213. Format: functional.
In test [2] the test system is Staphylococcus aureus. Description: Inhibition of growth of methicillin resistant Staphylococcus aureus MRSA OC 2089. The test is classed as functional.
The target in test [3] is T1, KinA/Spo0F (sporulation kinase A/sporulation initiation phosphotransferase F) (Bacillus subtilis (strain 168), UniProt P06628+P16497).
T1 sequence (P06628 whole entry): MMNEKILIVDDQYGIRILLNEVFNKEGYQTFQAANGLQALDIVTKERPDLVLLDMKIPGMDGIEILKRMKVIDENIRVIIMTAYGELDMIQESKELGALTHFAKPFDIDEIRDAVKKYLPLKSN
T1 sequence (P16497 whole entry): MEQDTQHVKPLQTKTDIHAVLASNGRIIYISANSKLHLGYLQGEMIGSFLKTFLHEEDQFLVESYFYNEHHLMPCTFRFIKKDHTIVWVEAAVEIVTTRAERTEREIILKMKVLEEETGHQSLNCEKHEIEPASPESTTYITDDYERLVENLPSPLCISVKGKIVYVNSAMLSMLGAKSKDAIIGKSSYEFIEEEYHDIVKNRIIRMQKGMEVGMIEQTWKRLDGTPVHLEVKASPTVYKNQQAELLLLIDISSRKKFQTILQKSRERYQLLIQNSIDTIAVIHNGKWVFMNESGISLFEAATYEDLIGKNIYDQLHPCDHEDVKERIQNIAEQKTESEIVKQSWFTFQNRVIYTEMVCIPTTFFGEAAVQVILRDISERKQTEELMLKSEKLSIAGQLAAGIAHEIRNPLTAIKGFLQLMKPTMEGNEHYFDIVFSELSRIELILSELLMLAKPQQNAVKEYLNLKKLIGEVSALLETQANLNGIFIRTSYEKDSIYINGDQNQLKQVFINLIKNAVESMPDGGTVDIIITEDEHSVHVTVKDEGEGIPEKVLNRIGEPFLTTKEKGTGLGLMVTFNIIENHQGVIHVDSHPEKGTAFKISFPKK
Description: Inhibition of KinA/Sp0F system two component (TCS) from Bacillus subtilis. Format: protein assay.

For another test, the system named is Enterococcus faecalis. Description: Inhibition of growth of Enterococcus faecalis OC 3041. Format: functional.
The next test deals with Enterococcus faecium. Description: Inhibition of growth of Vancomycin resistant Enterococcus faecium (VRE) OC 3312.
Test [4] has as its target T1, KinA/Spo0F (sporulation kinase A/sporulation initiation phosphotransferase F). In words: Inhibition of KinA/Sp0F system two component system (TCS) from Bacillus subtilis. Format: protein assay.
Test [5] concerns Staphylococcus aureus. In words: Compound was evaluated for inhibition of growth of methicillin resistant Staphylococcus aureus MRSA OC 2089. Format: functional.
In test [6] the test system is Staphylococcus aureus. In words: Compound was evaluated for inhibition of growth of Staphylococcus aureus ATCC 29213. The test is classed as functional.

The MIC is the lowest concentration that inhibits growth of the organism. The low end stands for inhibition by little substance, the high end for a need for much substance. As a reminder, the IC50 is the concentration needed to halve the response being measured. Higher therefore signals weaker potency. `N=C(N)c1ccc2cc(-c3ccc(Oc4ccccc4)cc3)[nH]c2c1`: the MIC in the test with Staphylococcus aureus [1], with Staphylococcus aureus [2], against Enterococcus faecalis and with Enterococcus faecium was 4 µg/mL (≈ 12.2 µM) each time. In test [3], this molecule yielded an IC50 of 7.7 µM.
The molecule `CC(C)(N)CNC(=O)c1ccc2[nH]c(-c3cc(C(C)(C)C)cc(C(C)(C)C)c3O)nc2c1` yielded an IC50 in test [3] of 10 µM.
On to `CC(C)(C)c1cc(-c2nc3cc(C(=N)N)ccc3[nH]2)cc(C(C)(C)C)c1`, for which the MIC against Staphylococcus aureus [1] amounted to 2 µg/mL (≈ 5.74 µM); in the test with Staphylococcus aureus [2], 4 µg/mL (≈ 11.5 µM); against Enterococcus faecalis, 4 µg/mL (≈ 11.5 µM); in the test with Enterococcus faecium it was 4 µg/mL (≈ 11.5 µM). In test [3], this molecule gave a half-maximal inhibitory concentration (IC50) of 25 µM.
`CC(C)(C)c1cccc(-c2nc3cc(C(=N)N)ccc3[nH]2)c1O`: the minimal inhibitory concentration (MIC) against Staphylococcus aureus [1] was 1 µg/mL (≈ 3.24 µM); in the test on Staphylococcus aureus [2], 1 µg/mL (≈ 3.24 µM); in the test with Enterococcus faecalis it was 2 µg/mL (≈ 6.49 µM); in the test on Enterococcus faecium, 2 µg/mL (≈ 6.49 µM). In test [3], this molecule displayed an IC50 of 6 µM.
For the molecule `CC(C)(C)c1cc(-c2nc3ccc(C(=N)N)cc3o2)c(O)c(C(C)(C)C)c1`, the minimum inhibitory concentration (MIC) came to 2 µg/mL (≈ 5.47 µM) against Staphylococcus aureus [1], 2 µg/mL (≈ 5.47 µM) with Staphylococcus aureus [2], 2 µg/mL (≈ 5.47 µM) in the test on Enterococcus faecalis and 1 µg/mL (≈ 2.74 µM) against Enterococcus faecium. This molecule also had a half-inhibitory concentration (IC50) in test [3] of 15.4 µM.
Take `CC(C)(C)c1cccc(-c2nc3cc(C(=N)N)ccc3[nH]2)c1`: the IC50 in test [3] was 163 µM.
Consider `N=C(N)c1ccc(Oc2ccc(-c3cc4ccc(C(=N)N)cc4[nH]3)cc2)cc1`, for which, in test [4], the half-inhibitory concentration (IC50) was 31 µM. For the same molecule, the MIC in the test on Staphylococcus aureus [1] is 1 µg/mL (≈ 2.71 µM); in the test with Staphylococcus aureus [2], 0.5 µg/mL (≈ 1.35 µM); against Enterococcus faecalis it was 1 µg/mL (≈ 2.71 µM); against Enterococcus faecium, 0.5 µg/mL (≈ 1.35 µM).
For `Cc1onc(-c2ccccc2)c1C(=O)N[C@@H]1C(=O)N2[C@@H]1SC(C)(C)[C@@H]2C(=O)O` [OXACILLIN], the minimum inhibitory concentration (MIC) is 0.25 µg/mL (≈ 0.623 µM) in the test on Staphylococcus aureus [1], over 64 µg/mL with Staphylococcus aureus [2], 16 µg/mL (≈ 39.9 µM) against Enterococcus faecalis and over 64 µg/mL against Enterococcus faecium.
Consider `N=C(N)c1ccc2nc(-c3ccc(-c4ccccc4)cc3)[nH]c2c1`, for which the IC50 in test [3] was determined as 88 µM.
For the molecule `N=C(N)c1ccc2[nH]c(-c3ccc(N(c4ccccc4)c4ccccc4)cc3)nc2c1`, the MIC against Staphylococcus aureus [1] was determined as 4 µg/mL (≈ 9.91 µM); against Staphylococcus aureus [2] it was 16 µg/mL (≈ 39.7 µM); in the test with Enterococcus faecalis, 4 µg/mL (≈ 9.91 µM); in the test on Enterococcus faecium it was 4 µg/mL (≈ 9.91 µM). This molecule also had an IC50 in test [3] of 17 µM.
On to `Cn1c(-c2ccc(Oc3ccccc3)cc2)nc2cc(C(=N)N)ccc21`, for which the MIC with Staphylococcus aureus [1] is 16 µg/mL (≈ 46.7 µM); in the test on Staphylococcus aureus [2], 32 µg/mL (≈ 93.5 µM); in the test on Enterococcus faecalis it was over 64 µg/mL; with Enterococcus faecium it was 32 µg/mL (≈ 93.5 µM). In addition, in test [3], the half-maximal inhibitory concentration (IC50) turned out to be 44 µM.
In the case of `CC(C)(C)c1cc(-c2nc3cc(C(=N)N)ccc3[nH]2)c(O)c(C(C)(C)C)c1`, the minimal inhibitory concentration (MIC) against Staphylococcus aureus [1] is 1 µg/mL (≈ 2.74 µM); with Staphylococcus aureus [2], 2 µg/mL (≈ 5.49 µM); in the test on Enterococcus faecalis, 2 µg/mL (≈ 5.49 µM); against Enterococcus faecium, 1 µg/mL (≈ 2.74 µM). The molecule further registered an IC50 in test [3] of 12 µM.
As to `CC(C)(C)c1cc(-c2nc3cc(C4=NCCN4)ccc3[nH]2)c(O)c(C(C)(C)C)c1`, the minimum inhibitory concentration (MIC) with Staphylococcus aureus [1], in the test on Staphylococcus aureus [2], in the test with Enterococcus faecalis and in the test with Enterococcus faecium was 1 µg/mL (≈ 2.56 µM) throughout. The molecule also came in with an IC50 in test [3] of 10 µM.
`COc1c(-c2nc3cc(C(=N)N)ccc3[nH]2)cc(C(C)(C)C)cc1C(C)(C)C`: the MIC stood at 4 µg/mL (≈ 10.6 µM) against Staphylococcus aureus [1], 4 µg/mL (≈ 10.6 µM) with Staphylococcus aureus [2], 8 µg/mL (≈ 21.1 µM) against Enterococcus faecalis and 4 µg/mL (≈ 10.6 µM) in the test with Enterococcus faecium.
In turn, `N=C(N)c1ccc2oc(-c3ccc(Oc4ccccc4)cc3)nc2c1` gave a half-inhibitory concentration (IC50) in test [3] of 138 µM.
Molecule `N=C(N)c1ccc2[nH]c(-c3ccccc3)nc2c1` yielded a concentration for half-maximal inhibition (IC50) in test [3] of over 500 µM.
Turning to `CC(C)(C)c1cc(-c2nc3cc(C(=N)N)ccc3o2)c(O)c(C(C)(C)C)c1`, the MIC with Staphylococcus aureus [1], with Staphylococcus aureus [2], in the test with Enterococcus faecalis and in the test on Enterococcus faecium was 1 µg/mL (≈ 2.74 µM) each time. The molecule further displayed an IC50 in test [3] of 14 µM.
In test [3], `N=C(N)c1ccc2nc(-c3ccc(Oc4ccccc4)cc3)oc2c1` displayed a half-maximal inhibitory concentration (IC50) of 49 µM.
On to `CC(C)(C)c1ccc(O)c(-c2nc3cc(C(=N)N)ccc3[nH]2)c1`, for which the minimal inhibitory concentration (MIC) against Staphylococcus aureus [1] was 8 µg/mL (≈ 25.9 µM); with Staphylococcus aureus [2], 8 µg/mL (≈ 25.9 µM); with Enterococcus faecalis, 16 µg/mL (≈ 51.9 µM); against Enterococcus faecium, 16 µg/mL (≈ 51.9 µM).
Turning to `N=C(N)c1ccc2nc(-c3ccc(Oc4ccccc4)cc3)[nH]c2c1`, the minimal inhibitory concentration (MIC) stood at 16 µg/mL (≈ 48.7 µM) with Staphylococcus aureus [5], 8 µg/mL (≈ 24.4 µM) against Staphylococcus aureus [6], 16 µg/mL (≈ 48.7 µM) against Enterococcus faecalis and 16 µg/mL (≈ 48.7 µM) in the test on Enterococcus faecium.
As for `COC(=O)c1ccc2[nH]c(-c3cc(C(C)(C)C)cc(C(C)(C)C)c3O)nc2c1`, in test [3], the IC50 is 380 µM.
